From BigSolDB 2.1

O=C1Nc2ccccc2C1=O
Details | solubility (mole fraction)
in 1,4-dioxane, 293.15 K | 0.0162
in 1,4-dioxane, 298.15 K | 0.0188
in 1,4-dioxane, 303.15 K | 0.0218
in 1,4-dioxane, 308.15 K | 0.0252
in 1,4-dioxane, 313.15 K | 0.029
in 1,4-dioxane, 318.15 K | 0.0331
in 1,4-dioxane, 323.15 K | 0.0378
in 1,4-dioxane, 328.15 K | 0.0428
in 1,4-dioxane, 333.15 K | 0.0484
in DMF, 283.15 K | 0.127
in DMF, 288.25 K | 0.135
in DMF, 293.25 K | 0.143
in DMF, 298.15 K | 0.151
in DMF, 303.15 K | 0.16
in DMF, 308.25 K | 0.17
in DMF, 313.25 K | 0.179
in DMF, 318.45 K | 0.19
in DMF, 323.15 K | 0.198
in DMF, 328.15 K | 0.209
in DMF, 333.15 K | 0.218
in THF, 289.85 K | 0.0197
in THF, 297.15 K | 0.0234
in THF, 301.15 K | 0.0254
in THF, 305.15 K | 0.028
in THF, 308.95 K | 0.0301
in THF, 314.05 K | 0.0335
in THF, 318.35 K | 0.0367
in THF, 323.15 K | 0.0399
in acetone, 287.25 K | 0.0109
in acetone, 292.75 K | 0.0125
in acetone, 298.45 K | 0.014
in acetone, 302.65 K | 0.0158
in acetone, 308.35 K | 0.0174
in acetone, 312.65 K | 0.0193
in acetone, 318.15 K | 0.0217
in acetone, 323.35 K | 0.0241
in acetonitrile, 283.15 K | 0.0042
in acetonitrile, 288.35 K | 0.00498
in acetonitrile, 294.65 K | 0.00608
in acetonitrile, 298.15 K | 0.00675
in acetonitrile, 303.15 K | 0.00789
in acetonitrile, 308.15 K | 0.00893
in acetonitrile, 313.15 K | 0.0103
in acetonitrile, 318.15 K | 0.0118
in acetonitrile, 323.15 K | 0.0136
in dichloromethane, 278.15 K | 0.000788
in dichloromethane, 282.35 K | 0.000876
in dichloromethane, 286.25 K | 0.000982
in dichloromethane, 290.55 K | 0.0011
in dichloromethane, 293.15 K | 0.0012
in dichloromethane, 296.95 K | 0.00132
in dichloromethane, 299.85 K | 0.00141
in dichloromethane, 303.25 K | 0.00153
in dichloromethane, 307.65 K | 0.0017
in ethyl acetate, 288.15 K | 0.00421
in ethyl acetate, 293.35 K | 0.0048
in ethyl acetate, 298.25 K | 0.00565
in ethyl acetate, 303.65 K | 0.00637
in ethyl acetate, 308.65 K | 0.00733
in ethyl acetate, 313.35 K | 0.00822
in ethyl acetate, 318.15 K | 0.0092
in ethyl acetate, 323.35 K | 0.0103
in toluene, 288.15 K | 0.000588
in toluene, 293.15 K | 0.000637
in toluene, 298.15 K | 0.000685
in toluene, 303.15 K | 0.000714
in toluene, 308.15 K | 0.000771
in toluene, 313.15 K | 0.000819
in toluene, 318.15 K | 0.000884
in toluene, 323.15 K | 0.000926
